Series [1] in a line: MTT assay for host cell cytotoxicity. Type of series: cell-based, human. The settings on record: human, HFF cells; MTT assay, 48 h; mean ± SD (n = 2). The method, then:
The MTT assay was used to measure the cytotoxicity of the small molecules against the HFF cells as described. Briefly, freshly confluent HFF cells in a 96-well culture plate were treated with increasing concentrations of compounds for 48 h, prior to the MTT assay.
(In general: Formazan colour is commonly taken as a measure of viable cells.)

The test system of series [2] is T. gondii RH strain expressing the luciferase reporter (RH-Fluc). In words: T. gondii tachyzoite growth inhibition assay (RH-Fluc luciferase). The settings on record: Toxoplasma gondii. The format is cell-based, Toxoplasma gondii. From the text: T. gondii RH strain expressing the luciferase reporter (RH-Fluc) was derived to assess the effect of the inhibitors on growth. Briefly, plasmid pCTG-EGFP [42] was modified by replacing the coding sequence of EGFP with that of the firefly luciferase reporter, using restriction enzymes BglII and PstI (Thermo Fisher Scientific, Waltham, MA, USA). The resultant plasmid, pCTG-Fluc, expressing firefly luciferase constitutively under the control of the T. gondii TubulinA promoter, was electroporated into the T. gondii RH strain [43, 44] using a Bio-Rad GenePulser Xcell system (1500 V, 50 Ω and 25 µF) along with restriction enzyme NotI to initiate RE-Mediated Integration (REMI) of the linearized plasmid into the genome. The resultant stable T. gondii line expressing the luciferase reporter was selected for resistance to 20 µM chloramphenicol (encoded by the plasmid pCTG), and dilution cloning was performed to ultimately identify the clone (RH-Fluc) with the highest luciferase activity (c. 4 × 10^7 RLU from 10^7 parasites) used for growth assays. T. gondii tachyzoites were maintained and cultured at 37 °C in 5% CO2 in a humidified incubator in primary human foreskin fibroblasts (HFF, ATCC); HFF cells were maintained in Dulbecco’s modified Eagle medium (DMEM) (Gibco^TM, Waltham, MA, USA) supplemented with 3.7 g/L sodium bicarbonate and 2.38 g/L HEPES, 10% Cosmic Calf serum (Hyclone^TM, Logan, UT, USA) and 20 mg/L gentamicin [47, 48].
Growth inhibition was assessed by luminescence measurements as described. Briefly, 100 μL of culture medium with or without inhibitors was added to confluent monolayers of HFF cells grown in 96-well treated culture plates (Eppendorf, Hamburg, Germany), followed by 100 µL of DMEM containing 5000 parasites. After 48 h, 150 µL of the culture media was discarded from each well without aspirating any parasites, and 10 µL lysis buffer was added to lyse the parasites, followed by 50 μL of 2× luciferase assay reagent (Promega, Madison, WI, USA). Luminescence was measured directly for 10 s using a Varioskan™ LUX multimode microplate reader (Thermo Fisher Scientific, Waltham, MA, USA).

Molecules are shown by their SMILES. Like-named read-outs stand apart in the source and are kept apart here.

On to `CCc1nc(N)nc(N)c1-c1ccc(Cl)cc1` [pyrimethamine], for which the CC50 (as a rule, the concentration giving 50% cytotoxicity) at 48 h in series [1] is more than 10000 nM. Further, the 50% inhibitory concentration (IC50) (in general, the concentration at which inhibition is half-maximal) in series [2] (Table S1, mean ± SEM (n = 3), read-out: IC50 T. gondii tachyzoites) came out at 500 ± 100 nM; in series [2] (parasites in culture, 48 h, pooled, mean ± SD (n = 3) (Table 3), read-out: IC50 T. gondii) it was 460 ± 140 nM.
